Results reported in PMC10823468, “Design, Synthesis, and Evaluation of New 1H-Benzo[d]imidazole Based PqsR Inhibitors as Adjuvant Therapy for Pseudomonas aeruginosa Infections” (Journal of Medicinal Chemistry, 2024).
Where two headings read alike, the source gives them in different places.

Assays:
[1] = system: PqsR (PqsR-controlled pqsA promoter, PAO1-L mCTX::PpqsA-lux); experiment: Bioluminescent reporter assay, PAO1-L mCTX::PpqsA-lux; format: cell-based, Pseudomonas aeruginosa; conditions: for activity relative to 6f / to each other, in words: PAO1-L reporter (6i, 6j, 6s: both reporter strains); for IC50: Pseudomonas aeruginosa; for pqs inhibitory activity in the PA bioluminescent reporter assay, in words: reporter strains; for reduction in potency compared with 6f: PAO1-L
Description: (§1) An extensive SAR was performed on 6a to investigate the role of substitutions around various positions of the benzimidazole ring (groups R1–R3) as well as the aromatic tail (groups R4–R5) to fine-tune the potency of this series (6a–u) (Table 2). The activity of these analogues to inhibit the pqs QS system was evaluated in the PAO1-L and PA14 strains (that belong to the two major P. aeruginosa genomic lineages), both harboring a chromosomally integrated mCTX::PpqsA-lux transcriptional fusion to report for the activity of pqs system. Successful pharmacological blocking of AQ signal reception at the level of PqsR leads to a reduced transcription of the pqsA-lux genes and ultimately reduction in the luminescence readout.
(§2) Strains PA14 mCTX::PpqsA-lux and PAO1-L mCTX::PpqsA-lux were used to detect PqsR-controlled activation of the pqsA promoter, as previously described,[45] and the assay was performed according to a published method.[46] For initial screening, the compounds were tested at a concentration of 10 μM, which was prepared from a 10 mM stock, in DMSO.

[2] = system: PqsR (PqsR-controlled pqsA promoter, PA14 mCTX::PpqsA-lux); experiment: Bioluminescent reporter assay, PA14 mCTX::PpqsA-lux; format: cell-based; conditions: Pseudomonas aeruginosa
Description: as §1, §2

[3] = system: pyocyanin production in P. aeruginosa; experiment: Pyocyanin quantification; format: cell-based, Pseudomonas aeruginosa; conditions: PAO1-L; concentration three times the IC50; relative to DMSO
Description: This assay was extended further to investigate the effect of 6f on pyocyanin production in different P. aeruginosa at 6f concentration of 200 nM (Figure 5b).
The experiment was performed following a published protocol with minor modifications. Strains were cultured into 5 mL of fresh medium overnight. […] Cells were centrifuged at 10 000 RCF for 10 min (Allegra 64R centrifuge, Beckman Coulter, High Wycombe, UK), and the supernatant was transferred to 15 mL falcon tubes with a HSW 10 mL Soft-Ject Syringe and a […] Sartorius syringe-driven filter (Fisher Brand, Loughborough, UK). Pyocyanin pigment was extracted into chloroform by mixing 7.5 mL of supernatant with 4.5 mL of chloroform. Pyocyanin was further extracted into 1.5 mL of 0.2 M HCL, which gave a pink/red solution, and the absorbance was measured at 520 nm.[47]

[4] = system: A549 human lung epithelial carcinoma cell line; experiment: A549 cytotoxicity assay (resazurin / alamar blue); format: cell-based; conditions: at concentrations up to 100 μM (1, 50, 100 μM), 24 h
Description: Establishing the safety profile of new chemical entities is paramount for further drug development. […] The assay employed resazurin reduction, a sensitive fluorometric assay widely used as a standard methodology in drug discovery research.[35] This assay relies on the ability of living cells to reduce resazurin to the fluorescent compound, resorufin, which indicates the rate of the metabolic activity as a means to quantify cell viability.
Cell viability was assessed according to Nimesh et al.[51] on A549 adenocarcinomic human alveolar basal epithelial cell line. The viability of the A549 cell line was assessed after overnight incubation with three concentrations (1, 50, and 100 μM) of the corresponding compound using alamar blue (resazurin) dye. Cells were maintained in the Dulbecco’s Modified Essential Medium (DMEM) supplemented with 10% fetal bovine serum (FBS) and 1% penicillin–streptomycin–neomycin (PSN). After that, 100 μL of suspended cells with a final concentration (1 × 10^4 cells/wall) were seeded in 96-well plates with 100 μL of (1, 50, 100 μM) concentrations of the tested compound was dispensed in sextuplicate. […] The plates were further incubated for 4–6 h and the intensity of the fluorescence was measured using an excitation light of 510 nm and measuring the fluorescence output at 590 nm. The cell viability in each well was normalized to the DMSO reading.

[5] = system: PqsR (PqsR-controlled pqsA promoter, PAO1-L mCTX::PpqsA-lux); set-up: method as in PMID 34503335; conditions: previously reported inhibitor; read-out: IC50 in P. aeruginosa PAO1-L; cited from earlier work
[6] = PAO1, read-out: IC50 (μM) PAO1-L mCTX::PpqsA-lux
[7] = PA14, read-out: IC50 (μM) PA14 mCTX::PpqsA-lux

Compound | IC50 [1, 6] [µM] | IC50 [2, 7] [µM] | further results
N#CCc1ccc(OCC(O)CNc2nc3ccc(Cl)cc3n2C2CCC2)cc1 (stereo not shown) [Compound 6j, 2-(4-(3-((6-Chloro-1-cyclobutyl-1H-benzo[d]imidazol-2-yl)amino)-2-hydroxypropoxy)phenyl) Acetonitrile] | 0.16 ± 0.01 | 0.31 ± 0.05 | activity relative to 6f / to each other, in words [1]: comparable potencies to 6f
CN1CCC(n2c(NCC(O)COc3ccc(CC#N)cc3)nc3ccc(Cl)cc32)CC1 (stereo not shown) [Compound 6r, 2-(4-(3-((6-Chloro-1-(1-methylpiperidin-4-yl)-1H-benzo[d]imidazol-2-yl)amino)-2-hydroxypropoxy)phenyl) Acetonitrile] |  |  | pqs inhibitory activity in the PA bioluminescent reporter assay, in words [1]: not active
N#CCc1ccc(OCC(O)CNc2nc3ccc(Cl)cc3s2)cc1 (stereo not shown) [Compound 8] |  |  | pqs inhibitory activity in the PA bioluminescent reporter assay, in words [1]: abolished pqs inhibitory activity
CC(C)n1c(NCC(O)COc2ccc(CC#N)c(F)c2)nc2ccc(Cl)cc21 (stereo not shown) [Compound 6o, 2-(4-(3-((6-Chloro-1-isopropyl-1H-benzo[d]imidazol-2-yl)amino)-2-hydroxypropoxy)-2-fluorophenyl) Acetonitrile] | 0.06 ± 0.03 | 0.09 ± 0.01 | 
COCCn1c(NCC(O)COc2ccc(CC#N)cc2)nc2ccc(Cl)cc21 (stereo not shown) [Compound 6t, 2-(4-(3-((6-Chloro-1-(2-methoxyethyl)-1H-benzo[d]imidazol-2-yl)amino)-2-hydroxypropoxy)phenyl) Acetonitrile] | 0.18 ± 0.04 | 0.2 ± 0.05 | reduction in potency compared with 6f [1]: 2 fold
2-(4-(3-((5,6-Dichloro-1-methyl-1H-benzo[d]imidazol-2-yl) amino)-2-hydroxypropoxy) phenyl) Acetonitrile [Compound 6c] |  |  | pqs inhibitory activity in the PA bioluminescent reporter assay, in words [1]: abolished the activity
N#CCc1ccc(OCC(O)CNc2nc3ccc(Cl)cc3n2CCO)cc1 (stereo not shown) [Compound 6u, 2-(4-(3-((6-Chloro-1-(2-hydroxyethyl)-1H-benzo[d]imidazol-2-yl)amino)-2-hydroxypropoxy)phenyl) Acetonitrile] | 0.18 ± 0.05 | 0.1 ± 0.02 | reduction in potency compared with 6f [1]: 2 fold
CC(C)(C)Cn1c(NCC(O)COc2ccc(CC#N)cc2)nc2ccc(Cl)cc21 (stereo not shown) [Compound 6h, 2-(4-(3-((6-Chloro-1-neopentyl-1H-benzo[d]imidazol-2-yl)amino)-2-hydroxypropoxy)phenyl) Acetonitrile] | 0.38 | 0.25 | reduction in potency compared with 6f [1]: ~6 fold
CC(C)n1c(NCC(O)COc2ccc(CC#N)cc2)nc2ccccc21 (stereo not shown) [Compound 6p, 2-(4-(2-Hydroxy-3-((1-isopropyl-1H-benzo[d]imidazol-2-yl)amino)propoxy)phenyl) Acetonitrile] | 0.77 | 1.03 | 
N#CCc1ccc(OCC(O)CNc2nc3ccc(Cl)cc3n2C2CCCCC2)cc1 (stereo not shown) [Compound 6l, 2-(4-(3-((6-Chloro-1-cyclohexyl-1H-benzo[d]imidazol-2-yl)amino)-2-hydroxypropoxy)phenyl) Acetonitrile] | 1.7 ± 0.5 | 1.4 ± 0.1 | reduction in potency compared with 6f [1]: 25 fold
CC(C)(C)n1c(NCC(O)COc2ccc(CC#N)cc2)nc2ccc(Cl)cc21 (stereo not shown) [Compound 6g, 2-(4-(3-((1-(tert-Butyl)-6-chloro-1H-benzo[d]imidazol-2-yl)amino)-2-hydroxypropoxy)phenyl) Acetonitrile] | 0.22 ± 0.01 | 0.23 ± 0.01 | inhibition of pyocyanin production [3]: ~80%
N#CCc1ccc(OCC(O)CNc2nc3ccc(Cl)cc3n2C2COC2)cc1 (stereo not shown) [Compound 6s, 2-(4-(3-((6-Chloro-1-(oxetan-3-yl)-1H-benzo[d]imidazol-2-yl)amino)-2-hydroxypropoxy)phenyl) Acetonitrile] | 0.24 ± 0.02 | 0.21 ± 0.03 | activity relative to 6f / to each other, in words [1]: comparable potencies to 6f
CC(C)n1c(NCC(O)COc2ccc(CC#N)cc2F)nc2ccc(Cl)cc21 (stereo not shown) [Compound 6n, 2-(4-(3-((6-Chloro-1-isopropyl-1H-benzo[d]imidazol-2-yl)amino)-2-hydroxypropoxy)-3-fluorophenyl) Acetonitrile] | 0.05 ± 0.02 | 0.11 ± 0.01 | cytotoxicity for A549 cells [4]: not cytotoxic
N#CCc1ccc(OCC(O)CNc2nc3ccc(Cl)cc3n2C2CCCC2)cc1 (stereo not shown) [Compound 6k, 2-(4-(3-((6-Chloro-1-cyclopentyl-1H-benzo[d]imidazol-2-yl)amino)-2-hydroxypropoxy)phenyl) Acetonitrile] | 0.44 ± 0.1 | 0.47 ± 0.1 | reduction in potency compared with 6f [1]: ~6 fold
N#CCc1ccc(OCC(O)CNc2nc3ccc(Cl)cc3n2CCOCc2ccccc2)cc1 (stereo not shown) [Compound 6m, 2-(4-(3-((1-(2-(Benzyloxy)ethyl)-6-chloro-1H-benzo[d]imidazol-2-yl)amino)-2-hydroxypropoxy)phenyl) Acetonitrile] | 1.06 |  | reduction in potency compared with 6f [1]: 14 fold
CN(C)CCn1c(NCC(O)COc2ccc(CC#N)cc2)nc2ccc(Cl)cc21 (stereo not shown) [Compound 6q, 2-(4-(3-((6-Chloro-1-(2-(dimethylamino)ethyl)-1H-benzo[d]imidazol-2-yl)amino)-2-hydroxypropoxy)phenyl) Acetonitrile] |  |  | pqs inhibitory activity in the PA bioluminescent reporter assay, in words [1]: obliterated the biological activity
Cn1c(NCC(O)COc2ccc(CC#N)cc2)nc2ccc(Cl)cc21 (stereo not shown) [Compound 6a, 2-(4-(3-((6-Chloro-1-methyl-1H-benzo[d]imidazol-2-yl)amino)-2-hydroxypropoxy)phenyl) Acetonitrile] |  |  | enhancement of activity compared to 1 ([1]; PAO1-L laboratory strain): 15 fold; IC50 ([1]; PAO1, read-out: IC50 (μM) PAO1-L PpqsA-lux): 0.21 ± 0.04 µM; IC50 ([2]; PA14, read-out: IC50 (μM) PA14 PpqsA-lux): 0.2 ± 0.02 µM
CC(C)n1c(NC[C@H](O)COc2ccc(CC#N)cc2)nc2ccc(Cl)cc21 [Compound 6v] |  |  | activity relative to 6f / to each other, in words [1]: comparable activity to the racemic compound 6f
N#CCc1ccc(OCC(O)CNc2nc3ccc(Cl)cc3o2)cc1 (stereo not shown) [Compound 7] |  |  | pqs inhibitory activity in the PA bioluminescent reporter assay, in words [1]: abolished pqs inhibitory activity
N#CCc1ccc(OCC(O)Cn2cnc3ccc(Cl)cc3c2=O)cc1 (stereo not shown) [Compound 1] |  |  | IC50 [5]: 3200 nM
Cn1c(SCC(O)COc2ccc(CC#N)cc2)nc2ccc(Cl)cc21 (stereo not shown) [Compound 11] |  |  | pqs inhibitory activity in the PA bioluminescent reporter assay, in words [1]: abolished pqs inhibitory activity
CC(C)n1c(NC[C@@H](O)COc2ccc(CC#N)cc2)nc2ccc(Cl)cc21 [Compound 6w] |  |  | activity relative to 6f / to each other, in words [1]: comparable activity to the racemic compound 6f
2-(4-(3-((5-Chloro-1-methyl-1H-benzo[d]imidazol-2-yl)amino)-2-hydroxypropoxy)phenyl) Acetonitrile [Compound 6b] |  |  | pqs inhibitory activity in the PA bioluminescent reporter assay, in words [1]: abolished the activity
N#CCc1ccc(OCC(O)CNc2nc3ccc(Cl)cc3n2C2CC2)cc1 (stereo not shown) [Compound 6i, 2-(4-(3-((6-Chloro-1-cyclopropyl-1H-benzo[d]imidazol-2-yl)amino)-2-hydroxypropoxy)phenyl) Acetonitrile] | 0.07 ± 0.03 | 0.09 ± 0.02 | activity relative to 6f / to each other, in words [1]: comparable potencies to 6f
